US20120029187A1, “HALOALKYLSULFONANILIDE DERIVATIVE” (Nissan Chemical Industries, Ltd., priority 2009, published 2012)

Assays:
Format in all cases: in vivo
barnyardgrass [1] = assay: Test Example 1: herbicidal effects in preemergence treatment under submerged conditions; settings: dose 2.52 g/a
Method in brief: (§1)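 Alluvial soil flooded to 4 cm depth; barnyardgrass, bulrush and ducksalad sown and 2.5-leaf rice seedlings transplanted. Same day, water-diluted emulsifiable concentrates applied to the water surface at set doses (g/a). Kept at 25–30 °C in greenhouse; effects scored 0–5 by mortality after three weeks.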

bulrush [2] = assay: as above; settings: dose 2.52 g/a
Method in brief: as §1

ducksalad [3] = assay: as above; settings: dose 2.52 g/a
Method in brief: as §1

transplanted rice = assay: Test Example 1: preemergence treatment under submerged conditions, effect on crop; settings: dose 2.52 g/a
Method in brief: as §1

barnyardgrass [4] = assay: Test Example 2: herbicidal effects during the vegetation period under submerged conditions; settings: treatment during the vegetation period under submerged conditions; dose 2.52 g/a
Method in brief: (§2)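 Barnyardgrass, bulrush and ducksalad were co-sown in alluvial soil flooded to 4 cm and grown in a greenhouse at 25 to 30° C. At the 1- or 2-leaf stage, water-diluted emulsifiable concentrates went onto the water surface at set doses (g/a). Herbicidal effect was scored three weeks later on a graded scale.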

bulrush [5] = assay: as above; settings: treatment during the vegetation period under submerged conditions; dose 2.52 g/a
Method in brief: as §2

ducksalad [6] = assay: as above; settings: treatment during the vegetation period under submerged conditions; dose 2.52 g/a
Method in brief: as §2

Italian ryegrass [7] = assay: Test Example 3: herbicidal effects in soil treatment
Method in brief: (§3)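 Seeds were sown in sterilized diluvial soil and covered with about 1.5 cm of soil. Compounds, formulated as emulsifiable concentrates and diluted with water, were sprayed evenly over the soil surface at set doses in g/a. Herbicidal effect was scored on a rating scale three weeks later.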

barnyardgrass [8] = assay: as above
Method in brief: as §3

common chickweed [9] = assay: as above
Method in brief: as §3

common lambsquater [10] = assay: as above
Method in brief: as §3

common ragweed [11] = assay: as above
Method in brief: as §3

giant foxtail [12] = assay: as above
Method in brief: as §3

large crabgrass [13] = assay: as above
Method in brief: as §3

posumbu knotweed [14] = assay: as above
Method in brief: as §3

redroot pigweed [15] = assay: as above
Method in brief: as §3

velvetleaf [16] = assay: as above
Method in brief: as §3

water foxtail [17] = assay: as above
Method in brief: as §3

wild oat [18] = assay: as above
Method in brief: as §3

Italian ryegrass [19] = assay: Test Example 4: herbicidal effect in foliage treatment; settings: three weeks after application
Method in brief: (§4)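 14-day greenhouse-grown plants (25–30° C) sprayed on foliage with diluted EC; dose as g/a; effect graded after 3 weeks.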

barnyardgrass [20] = assay: as above; settings: three weeks after application
Method in brief: as §4

beadstraw = assay: as above; settings: three weeks after application
Method in brief: as §4

common chickweed [21] = assay: as above; settings: three weeks after application
Method in brief: as §4

common lambsquater [22] = assay: as above; settings: three weeks after application
Method in brief: as §4

common ragweed [23] = assay: as above; settings: three weeks after application
Method in brief: as §4

giant foxtail [24] = assay: as above; settings: three weeks after application
Method in brief: as §4

large crabgrass [25] = assay: as above; settings: three weeks after application
Method in brief: as §4

posumbu knotweed [26] = assay: as above; settings: three weeks after application
Method in brief: as §4

redroot pigweed [27] = assay: as above; settings: three weeks after application
Method in brief: as §4

velvetleaf [28] = assay: as above; settings: three weeks after application
Method in brief: as §4

water foxtail [29] = assay: as above; settings: three weeks after application
Method in brief: as §4

wild oat [30] = assay: as above; settings: three weeks after application
Method in brief: as §4

CCOC(=O)N(c1ccccc1CN1COCCC1=O)S(=O)(=O)C(F)(F)F [II-2]
A: barnyardgrass, herbicidal effect (evaluation scale 0-5) (barnyardgrass [1]): 5 (mortality of 90% or above (nearly complete death))
B: bulrush, herbicidal effect (evaluation scale 0-5) (bulrush [2]): 5 (mortality of 90% or above (nearly complete death))
C: ducksalad, herbicidal effect (evaluation scale 0-5) (ducksalad [3]): 5 (mortality of 90% or above (nearly complete death))
a: transplanted rice, effect on crop (evaluation scale 0-5) (transplanted rice): 1 (mortality of at least 5% and less than 20%)
A: barnyardgrass, herbicidal effect (evaluation scale 0-5) (barnyardgrass [4]): 5 (mortality of 90% or above (nearly complete death))
B: bulrush, herbicidal effect (evaluation scale 0-5) (bulrush [5]): 5 (mortality of 90% or above (nearly complete death))
C: ducksalad, herbicidal effect (evaluation scale 0-5) (ducksalad [6]): 4 (mortality of at least 70% and less than 90%)
H: Italian ryegrass, herbicidal effect (evaluation scale 0-5) (Italian ryegrass [7]; dose 6.3 g/a): 4 (mortality of at least 70% and less than 90%)
A: barnyardgrass, herbicidal effect (evaluation scale 0-5) (barnyardgrass [8]; dose 6.3 g/a): 5 (mortality of 90% or above (nearly complete death))
N: common chickweed, herbicidal effect (evaluation scale 0-5) (common chickweed [9]; dose 6.3 g/a): 5 (mortality of 90% or above (nearly complete death))
L: common lambsquater, herbicidal effect (evaluation scale 0-5) (common lambsquater [10]; dose 6.3 g/a): 5 (mortality of 90% or above (nearly complete death))
J: common ragweed, herbicidal effect (evaluation scale 0-5) (common ragweed [11]; dose 6.3 g/a): 5 (mortality of 90% or above (nearly complete death))
E: giant foxtail, herbicidal effect (evaluation scale 0-5) (giant foxtail [12]; dose 6.3 g/a): 5 (mortality of 90% or above (nearly complete death))
D: large crabgrass, herbicidal effect (evaluation scale 0-5) (large crabgrass [13]; dose 6.3 g/a): 5 (mortality of 90% or above (nearly complete death))
M: posumbu knotweed, herbicidal effect (evaluation scale 0-5) (posumbu knotweed [14]; dose 6.3 g/a): 1 (mortality of at least 5% and less than 20%)
K: redroot pigweed, herbicidal effect (evaluation scale 0-5) (redroot pigweed [15]; dose 6.3 g/a): 0 (mortality of less than 5% (almost ineffective))
I: velvetleaf, herbicidal effect (evaluation scale 0-5) (velvetleaf [16]; dose 6.3 g/a): 5 (mortality of 90% or above (nearly complete death))
G: water foxtail, herbicidal effect (evaluation scale 0-5) (water foxtail [17]; dose 6.3 g/a): 5 (mortality of 90% or above (nearly complete death))
F: wild oat, herbicidal effect (evaluation scale 0-5) (wild oat [18]; dose 6.3 g/a): 0 (mortality of less than 5% (almost ineffective))
H: Italian ryegrass, herbicidal effect (Italian ryegrass [19]; dose 6.3 g/a): 4 (mortality of at least 70% and less than 90%)
A: barnyardgrass, herbicidal effect (barnyardgrass [20]; dose 6.3 g/a): 5 (mortality of 90% or above (nearly complete death))
O: beadstraw, herbicidal effect (beadstraw; dose 6.3 g/a): 4 (mortality of at least 70% and less than 90%)
N: common chickweed, herbicidal effect (common chickweed [21]; dose 6.3 g/a): 3 (mortality of at least 40% and less than 70%)
L: common lambsquater, herbicidal effect (common lambsquater [22]; dose 6.3 g/a): 4 (mortality of at least 70% and less than 90%)
J: common ragweed, herbicidal effect (common ragweed [23]; dose 6.3 g/a): 4 (mortality of at least 70% and less than 90%)
E: giant foxtail, herbicidal effect (giant foxtail [24]; dose 6.3 g/a): 5 (mortality of 90% or above (nearly complete death))
D: large crabgrass, herbicidal effect (large crabgrass [25]; dose 6.3 g/a): 5 (mortality of 90% or above (nearly complete death))
M: posumbu knotweed, herbicidal effect (posumbu knotweed [26]; dose 6.3 g/a): 3 (mortality of at least 40% and less than 70%)
K: redroot pigweed, herbicidal effect (redroot pigweed [27]; dose 6.3 g/a): 0 (mortality of less than 5% (almost ineffective))
I: velvetleaf, herbicidal effect (velvetleaf [28]; dose 6.3 g/a): 5 (mortality of 90% or above (nearly complete death))
G: water foxtail, herbicidal effect (water foxtail [29]; dose 6.3 g/a): 5 (mortality of 90% or above (nearly complete death))
F: wild oat, herbicidal effect (wild oat [30]; dose 6.3 g/a): 0 (mortality of less than 5% (almost ineffective))

O=C1CC(c2ccccc2)OCN1Cc1ccccc1NS(=O)(=O)C(F)(F)F (stereo not shown) [II-9]
A: barnyardgrass, herbicidal effect (evaluation scale 0-5) (barnyardgrass [1]): 5 (mortality of 90% or above (nearly complete death))
B: bulrush, herbicidal effect (evaluation scale 0-5) (bulrush [2]): 5 (mortality of 90% or above (nearly complete death))
C: ducksalad, herbicidal effect (evaluation scale 0-5) (ducksalad [3]): 5 (mortality of 90% or above (nearly complete death))
a: transplanted rice, effect on crop (evaluation scale 0-5) (transplanted rice): 0 (mortality of less than 5% (almost ineffective))
A: barnyardgrass, herbicidal effect (evaluation scale 0-5) (barnyardgrass [4]): 5 (mortality of 90% or above (nearly complete death))
B: bulrush, herbicidal effect (evaluation scale 0-5) (bulrush [5]): 5 (mortality of 90% or above (nearly complete death))
C: ducksalad, herbicidal effect (evaluation scale 0-5) (ducksalad [6]): 5 (mortality of 90% or above (nearly complete death))
H: Italian ryegrass, herbicidal effect (evaluation scale 0-5) (Italian ryegrass [7]; dose 3.2 g/a): 4 (mortality of at least 70% and less than 90%)
A: barnyardgrass, herbicidal effect (evaluation scale 0-5) (barnyardgrass [8]; dose 3.2 g/a): 5 (mortality of 90% or above (nearly complete death))
N: common chickweed, herbicidal effect (evaluation scale 0-5) (common chickweed [9]; dose 3.2 g/a): 3 (mortality of at least 40% and less than 70%)
L: common lambsquater, herbicidal effect (evaluation scale 0-5) (common lambsquater [10]; dose 3.2 g/a): 0 (mortality of less than 5% (almost ineffective))
J: common ragweed, herbicidal effect (evaluation scale 0-5) (common ragweed [11]; dose 3.2 g/a): 0 (mortality of less than 5% (almost ineffective))
E: giant foxtail, herbicidal effect (evaluation scale 0-5) (giant foxtail [12]; dose 3.2 g/a): 4 (mortality of at least 70% and less than 90%)
D: large crabgrass, herbicidal effect (evaluation scale 0-5) (large crabgrass [13]; dose 3.2 g/a): 5 (mortality of 90% or above (nearly complete death))
M: posumbu knotweed, herbicidal effect (evaluation scale 0-5) (posumbu knotweed [14]; dose 3.2 g/a): 5 (mortality of 90% or above (nearly complete death))
K: redroot pigweed, herbicidal effect (evaluation scale 0-5) (redroot pigweed [15]; dose 3.2 g/a): 0 (mortality of less than 5% (almost ineffective))
I: velvetleaf, herbicidal effect (evaluation scale 0-5) (velvetleaf [16]; dose 3.2 g/a): 5 (mortality of 90% or above (nearly complete death))
G: water foxtail, herbicidal effect (evaluation scale 0-5) (water foxtail [17]; dose 3.2 g/a): 5 (mortality of 90% or above (nearly complete death))
F: wild oat, herbicidal effect (evaluation scale 0-5) (wild oat [18]; dose 3.2 g/a): 3 (mortality of at least 40% and less than 70%)
H: Italian ryegrass, herbicidal effect (Italian ryegrass [19]; dose 3.2 g/a): 1 (mortality of at least 5% and less than 20%)
A: barnyardgrass, herbicidal effect (barnyardgrass [20]; dose 3.2 g/a): 5 (mortality of 90% or above (nearly complete death))
O: beadstraw, herbicidal effect (beadstraw; dose 3.2 g/a): 4 (mortality of at least 70% and less than 90%)
N: common chickweed, herbicidal effect (common chickweed [21]; dose 3.2 g/a): 3 (mortality of at least 40% and less than 70%)
L: common lambsquater, herbicidal effect (common lambsquater [22]; dose 3.2 g/a): 0 (mortality of less than 5% (almost ineffective))
J: common ragweed, herbicidal effect (common ragweed [23]; dose 3.2 g/a): 3 (mortality of at least 40% and less than 70%)
E: giant foxtail, herbicidal effect (giant foxtail [24]; dose 3.2 g/a): 4 (mortality of at least 70% and less than 90%)
D: large crabgrass, herbicidal effect (large crabgrass [25]; dose 3.2 g/a): 0 (mortality of less than 5% (almost ineffective))
M: posumbu knotweed, herbicidal effect (posumbu knotweed [26]; dose 3.2 g/a): 5 (mortality of 90% or above (nearly complete death))
K: redroot pigweed, herbicidal effect (redroot pigweed [27]; dose 3.2 g/a): 0 (mortality of less than 5% (almost ineffective))
I: velvetleaf, herbicidal effect (velvetleaf [28]; dose 3.2 g/a): 1 (mortality of at least 5% and less than 20%)
G: water foxtail, herbicidal effect (water foxtail [29]; dose 3.2 g/a): 4 (mortality of at least 70% and less than 90%)
F: wild oat, herbicidal effect (wild oat [30]; dose 3.2 g/a): 0 (mortality of less than 5% (almost ineffective))
